From patent US20040204375A1, “Gene delivery compounds” (priority 2001, published 2004)

What was measured:
HT29 cells [1] = experiment: Screening assay for gene transfer activators: adenovirus luciferase or β-galactosidase constructs on confluent cells with test compound; type: cell-based, human; set-up: key to Activity (gene transfer activator): +++ = more active; ++ = active; + = less active; details: for Activity (gene transfer activator): gene transfer in presence vs absence of test compound
Experimental: A gene transfer activating compound is identified by an assay which determines whether gene transfer occurs to a greater extent in the presence of a test compound than in the absence. For example, confluent cells plated in multi-well cell culture units are exposed to adenovirus luciferase or β-galactosidase constructs in the presence of the test compound. The test compound is administered to cells before, after or concurrently with the adenovirus. The extent of gene transfer is measured by visual inspection or quantitative measurement of luciferase or β-galactosidase in the presence and absence of the test compound.
HT29 cells are grown in 96-well plates. The cells are seeded at near confluency, about 300,000 cells per well, and infected with adenovirus 3-4 days later. […] For screening purposes, cells are grown on plastic. […] The activity of candidate compounds is also confirmed using polarized monolayers grown on filters. Once confluent, HT29 cells are very difficult to transduce with adenoviral constructs. Fewer than 1 in 100 cells express adenoviral transgenes at multiplicity of infection (MOI) of approximately 50. A replication deficient adenovirus encoding firefly luciferase or the E. coli LacZ gene (β-galactosidase) at an MOI of 50 for each well of cells in low serum medium is applied for 4 hours at 37° C. Test drugs are incubated along with the virus. Forty-eight hours later, the cells are assayed for β-galactosidase or luciferase by standard techniques. For example, β-galactosidase is assayed by incubating cells with a β-galactosidase substrate such as 1 mg/ml X-gal 5-bromo-4-chloro-3-indolyl B-D-galactopyranoside (X-gal), overnight at 37° C. When X-gal is cleaved by β-galactosidase, a bright blue precipitate is formed. The intensity of the blue color can be estimated visually or measured by optical densitometry to evaluate the efficiency of adenoviral transduction. Luciferase is assayed using a commercially available kit (Promega) which allows quantitative measurements of adenoviral gene transfer.

[2] = system: IB3 cystic fibrosis airway epithelial cells; experiment: Adenoviral luciferase gene transfer to IB3 cells (Example 3); type: cell-based; details: 100 micromolar compound, MOI 5 or 10, FIG. 3
Experimental: IB3 cystic fibrosis airway epithelial cells are grown in 96-well plates. The cells are seeded at near confluency, about 300,000 cells per well, and infected with adenovirus 3-4 days later. A replication deficient adenovirus encoding luciferase is applied at an MOI of 5 or 10 to wells of cells in low serum medium for 4 hours at 37° C. Compound 6975 is incubated along with the virus at a concentration of 100 micromolar. A set of cells is incubated with virus but no gene transfer activating compound. Forty-eight hours later, the cells are assayed for luciferase by standard techniques. FIG. 3 presents the results of this assay in a graph.

HT29 cells [3] = experiment: Adenoviral LacZ gene transfer to HT29 cells, comparison with EGTA (Example 4); type: cell-based, human; details: 100 micromolar compound vs 5 millimolar EGTA, MOI 10
Experimental: HT29 cells are grown in 96-well plates. The cells are seeded at near confluency, about 300,000 cells per well, and infected with adenovirus 3-4 days later. […] A replication deficient adenovirus encoding LacZ is applied at an MOI of 10 to wells of cells in low serum medium for 4 hours at 37° C. Compound 6975 is incubated along with the virus at a concentration of 100 micromolar. A second set of cells is incubated with virus but no gene transfer activating compound and a third set of cells is incubated with virus and 5 millimolar EGTA. Forty-eight hours later, the cells are assayed for […] by standard techniques.

HT29 cells [4] = experiment: Adenoviral LacZ gene transfer to confluent HT29 cells, β-galactosidase assay (Example 2); type: cell-based, human; details: for activation of adenovirus gene transfer: HT29 cells, LacZ adenovirus MOI 0.1-10, 4 hours, assay 48 hours later
Experimental: HT29 or HeLa cells are grown in 96-well plates. The HT29 cells are seeded at near confluency, about 300,000 cells per well, and infected with adenovirus 3-4 days later. Confluent HeLa cells are used as a positive control. […] A replication deficient adenovirus encoding the E. coli LacZ gene is applied at an MOI of 0.1-10 to wells of cells in low serum medium for 4 hours at 37° C. Gene transfer activating compounds are incubated along with the virus at concentrations of 10 micromolar or 100 micromolar. A set of cells is incubated with virus but no gene transfer activating compound. Forty-eight hours later, the cells are assayed for β-galactosidase by standard techniques. […] FIGS. 2 and 6 illustrate the results using compound 6975 and 8496 respectively.

[5] = system: PC-3 human prostate cell tumors; experiment: In vivo adenoviral gene transfer to prostate tumors, PNP activity (Example 5); set-up: species or system mice; details: 1 mM compound, 2-3×10^9 adenoviral particles per tumor, FIG. 5
Experimental: Prostate tumors are established in suitable hosts and PNP activity assayed in the presence or absence of adenovirus. Approximately 2-3×10^9 adenoviral particles are administered per tumor in the presence of 1 mM of compound 6975 or in the absence of the compound. Transgene activity is also assayed in livers. Further details of the method are described in (3).

Structure (SMILES) | Activity (gene transfer activator) (HT29 cells [1]) | activation of adenovirus gene transfer (HT29 cells [4]; 10 micromolar compound) | activation of adenovirus gene transfer (HT29 cells [4]; 100 micromolar compound) | also measured
[H]/N=C(\N)N/N=C(\C)c1ccccn1 [Compound 6883] | + |  |  | 
[H]/N=C(/N/N=C(\C)c1ccccn1)Nc1ccccc1 [Compound 6898] | + |  |  | 
[H]/N=C(/N/N=C(\C)c1ccccn1)Nc1ccccc1 [Compound 6975] | +++ | show activation of adenovirus gene transfer | show activation of adenovirus gene transfer | adenoviral gene transfer of luciferase to IB3 cells [2]: activates adenoviral gene transfer of luciferase; adenovirus gene transfer efficiency compared with EGTA (HT29 cells [3]): activates adenovirus gene transfer more efficiently than EGTA; in vivo adenoviral gene transfer to tumors [5]: activates in vivo adenoviral gene transfer to PC-3 human prostate cell tumors in mice; activating adenovirus-mediated gene transfer and expression in cells (HT29 cells [1]; FIG. 1): effective in activating adenovirus-mediated gene transfer and expression in cells
C/C(=N/N=C(/N)NO)c1ccccn1 [Compound 7036] | ++ |  |  | 
C/C(=N/NC(=N)NCc1ccccn1)c1ccccn1 [Compound 7064] | + |  |  | 
[H]/N=c1/ncn([C@@H]2O[C@H](CO)[C@@H](O)[C@H]2O)c2[nH]cnc12 [Compound 8496] | +++ | show activation of adenovirus gene transfer | show activation of adenovirus gene transfer | adenoviral gene transfer of LacZ to HT29 cells (HT29 cells [4]; FIG. 6): activates adenoviral gene transfer of LacZ to HT29 cells
